Measured values: paper doi:10.1101/2025.11.13.687868v1 (biorxiv, 2025)

Assays:
GPX1 = biological target: T1, GPX1 (Homo sapiens, UniProt P07203); experiment: GR-coupled NADPH fluorescence assay; type: biochemical
T1 sequence (P07203 1-203): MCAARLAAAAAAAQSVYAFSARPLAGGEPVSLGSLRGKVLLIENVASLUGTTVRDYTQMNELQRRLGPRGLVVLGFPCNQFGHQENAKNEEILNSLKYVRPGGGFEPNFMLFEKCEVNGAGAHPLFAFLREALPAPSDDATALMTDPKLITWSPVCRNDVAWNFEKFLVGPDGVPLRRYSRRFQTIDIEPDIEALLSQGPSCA

[1] = biological target: T2, GPX4 (purified recombinant Sec-containing human GPX4) (Homo sapiens, UniProt P36969); experiment: GR-coupled NADPH fluorescence assay; type: biochemical
T2 sequence (P36969 28-197): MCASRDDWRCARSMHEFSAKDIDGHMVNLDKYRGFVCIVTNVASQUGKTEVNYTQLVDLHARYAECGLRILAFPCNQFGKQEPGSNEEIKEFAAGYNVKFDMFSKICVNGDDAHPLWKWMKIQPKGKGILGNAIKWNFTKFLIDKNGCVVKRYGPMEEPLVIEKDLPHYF

With `O=C(O)CC(S)C(=O)O` (centres unmarked) [thiomalic acid] the IC50 (GPX1) was 6.7 µM and the IC50 [1] was 54.8 µM.
